One may read the IC50 as the midpoint of a concentration-inhibition curve.

The assay concerns the target T1, Human Cav3.1 calcium channel (Homo sapiens, UniProt O43497).
T1 construct: expressed in transfected cells; host or cells: HEK-293 natClytin/TASK1+Cav3.1 cell line
Briefly: Human Cav3.1 calcium channel patch clamp assay (SyncroPatch 384PE; single point and IC50, voltage dependent block). The format is cell-based. Particulars: for % Inhibition (Single Point Data): patch clamp. The method, then: Certain compounds (as indicated) were tested for Human Cav3.1 calcium channel activity via a patch clamp assay as disclosed herein.
Pulse generation and data collection were performed with PatchController384 V1.3.0 and DataController384 V1.2.1 (Nanion Technologies). Offline analysis was performed using Excel and Graphpad Prism (V 8.4.2) with complete data files uploaded to Dotmatics. The access resistance and apparent membrane capacitance were estimated using built-in protocols. Current was recorded in whole cell configuration from a population of cells. The cells were lifted, triturated, and resuspended at 800,000 cells/ml. The cells were allowed to recover in the cell hotel prior to experimentation. Currents were recorded at room temperature. The external solution contained the following (in mM): NaCl 80, NMDG 60, KCl 4, MgCl2 1, CaCl2 6, glucose 5 and HEPES 10 (pH=7.4, Osmolarity˜300 mOsm). The extracellular solution was used as the wash, reference and compound delivery solution.
The compound plate was created at 2× concentrated in the extracellular solution. The compound was diluted to 1:2 when added to the recording well. The amount of DMSO in the extracellular solution was held constant at the level used for the highest tested concentration. For the voltage clamp experiments on Cav3.1, data were sampled at 10 KHz. After establishment of the seal and the passage in the whole cell configuration, the cells were held at −120 mV. Cav3.1 current was evoked using a 100 ms step to −20 mV (to measure resting state block), followed by a 1600 ms step to −65 mV and a second 100 ms step to −20 mV (to measure voltage dependent block). The voltage protocol was applied every 15 seconds in the absence and in the presence of the compounds under investigation. […] Current amplitude (pA) was measured in the peak 1 and 2. The average of last 3 sweeps of each liquid period (vehicle, compound under investigation, full block) was calculated. Nickel-sensitive current was used to calculate the % of inhibition in the presence of the compound under investigation.

Where [1] appears, read: Testing Conc 1.25, HEK-293 natClytin/TASK1+Cav3.1 cell line.
Where [2] appears, read: voltage dependent block (VDB), HEK-293 natClytin/TASK1+Cav3.1 cell line, read-out: Cav3.1 IC50.
Setting [3] is: Testing Conc 1, HEK-293 natClytin/TASK1+Cav3.1 cell line.

Where two headings read alike, the source gives them in different places.

T1 sequence (O43497 whole entry): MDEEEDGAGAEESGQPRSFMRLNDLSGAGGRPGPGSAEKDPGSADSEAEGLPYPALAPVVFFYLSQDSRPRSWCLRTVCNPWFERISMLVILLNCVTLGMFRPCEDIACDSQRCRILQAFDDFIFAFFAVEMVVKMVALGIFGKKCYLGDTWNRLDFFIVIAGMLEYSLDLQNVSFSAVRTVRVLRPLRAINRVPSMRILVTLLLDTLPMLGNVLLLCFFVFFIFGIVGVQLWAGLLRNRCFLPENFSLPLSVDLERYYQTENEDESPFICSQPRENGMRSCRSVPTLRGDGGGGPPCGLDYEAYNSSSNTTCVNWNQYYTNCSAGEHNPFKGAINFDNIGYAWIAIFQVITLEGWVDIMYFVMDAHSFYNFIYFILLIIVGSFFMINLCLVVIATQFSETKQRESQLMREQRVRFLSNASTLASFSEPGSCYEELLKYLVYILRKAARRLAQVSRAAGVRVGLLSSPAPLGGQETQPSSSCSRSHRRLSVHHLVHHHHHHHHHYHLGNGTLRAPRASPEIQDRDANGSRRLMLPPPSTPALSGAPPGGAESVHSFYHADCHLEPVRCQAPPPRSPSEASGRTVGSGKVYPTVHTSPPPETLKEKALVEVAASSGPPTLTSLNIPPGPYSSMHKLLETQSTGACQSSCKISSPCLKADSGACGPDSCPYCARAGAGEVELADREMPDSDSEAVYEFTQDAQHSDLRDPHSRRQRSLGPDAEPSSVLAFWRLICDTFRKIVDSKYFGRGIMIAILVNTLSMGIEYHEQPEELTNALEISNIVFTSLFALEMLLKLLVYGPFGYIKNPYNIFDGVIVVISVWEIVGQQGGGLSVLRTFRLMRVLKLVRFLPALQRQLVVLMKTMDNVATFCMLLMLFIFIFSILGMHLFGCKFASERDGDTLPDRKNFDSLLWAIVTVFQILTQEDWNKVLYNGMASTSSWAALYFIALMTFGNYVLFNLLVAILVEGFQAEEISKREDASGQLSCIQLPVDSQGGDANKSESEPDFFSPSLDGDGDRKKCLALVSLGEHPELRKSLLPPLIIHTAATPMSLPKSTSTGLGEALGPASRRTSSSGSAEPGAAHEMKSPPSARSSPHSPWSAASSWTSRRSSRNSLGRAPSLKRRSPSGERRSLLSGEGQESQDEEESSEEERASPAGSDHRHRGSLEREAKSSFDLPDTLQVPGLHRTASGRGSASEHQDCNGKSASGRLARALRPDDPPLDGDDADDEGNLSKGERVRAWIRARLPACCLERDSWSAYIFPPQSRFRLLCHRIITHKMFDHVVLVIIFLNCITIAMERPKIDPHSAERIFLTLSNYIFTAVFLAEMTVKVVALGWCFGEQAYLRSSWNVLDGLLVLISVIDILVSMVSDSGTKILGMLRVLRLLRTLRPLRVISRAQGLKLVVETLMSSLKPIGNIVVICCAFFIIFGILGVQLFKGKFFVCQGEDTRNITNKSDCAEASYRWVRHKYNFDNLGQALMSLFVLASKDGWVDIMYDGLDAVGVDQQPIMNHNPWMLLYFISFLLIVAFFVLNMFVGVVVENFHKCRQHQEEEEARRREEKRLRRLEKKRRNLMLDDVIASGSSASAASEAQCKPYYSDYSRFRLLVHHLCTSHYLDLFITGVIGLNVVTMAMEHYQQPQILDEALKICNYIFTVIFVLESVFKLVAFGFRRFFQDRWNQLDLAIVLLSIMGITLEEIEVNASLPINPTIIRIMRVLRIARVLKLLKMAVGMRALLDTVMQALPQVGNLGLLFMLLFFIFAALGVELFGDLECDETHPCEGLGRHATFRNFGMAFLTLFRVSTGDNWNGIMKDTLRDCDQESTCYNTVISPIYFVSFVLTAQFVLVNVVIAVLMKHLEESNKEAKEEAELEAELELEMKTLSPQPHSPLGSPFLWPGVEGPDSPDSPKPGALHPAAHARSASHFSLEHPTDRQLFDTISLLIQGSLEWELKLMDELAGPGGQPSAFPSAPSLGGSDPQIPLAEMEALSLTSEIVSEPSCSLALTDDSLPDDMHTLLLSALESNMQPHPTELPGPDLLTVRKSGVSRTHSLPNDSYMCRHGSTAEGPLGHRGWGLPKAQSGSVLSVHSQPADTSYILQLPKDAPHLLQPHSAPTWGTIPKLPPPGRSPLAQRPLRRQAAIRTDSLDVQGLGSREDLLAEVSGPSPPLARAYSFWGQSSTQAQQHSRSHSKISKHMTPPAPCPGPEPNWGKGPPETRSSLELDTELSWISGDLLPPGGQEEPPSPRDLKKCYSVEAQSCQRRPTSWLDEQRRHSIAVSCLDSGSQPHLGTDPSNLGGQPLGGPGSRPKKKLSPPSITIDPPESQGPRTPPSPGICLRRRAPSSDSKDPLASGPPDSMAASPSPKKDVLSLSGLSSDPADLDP

`CC(C)Cc1cc(CNC(=O)CN2CCN(CC(=O)NC(C)(C)C)CC2)nn1-c1ccccc1` [Compound 1, 2-[4-[2-(tert-butylamino)-2-oxo-ethyl]piperazin-1-yl]-N-[(5-isobutyl-1-phenyl-pyrazol-3-yl)methyl]acetamide]: under setting [1], the “% Inhibition (Single Point Data)” value is recorded as 27.978%. Also, the IC50 under setting [2] turned out to be 2240 nM.

As for `Cc1cc(CNC(=O)CN2CCN(CC(=O)NC(C)(C)C)CC2)nn1-c1ccccc1` [Compound 2], under setting [3], the “% Inhibition (Single Point Data)” value came to 40.057%.

For `CC(C)(C)NC(=O)CN1C2CCC1CN(CC(=O)Nc1cc(F)cc(Cl)c1)C2` [Compound 3], the “% Inhibition (Single Point Data)” value under setting [1] stood at 94.689%. In addition, the concentration for half-maximal inhibition (IC50) under setting [2] worked out at 273 nM.

On to `Cn1nc(C2CC2)cc1NC(=O)CN1CC2CCC(C1)N2CC(=O)NC(C)(C)C` [Compound 4], for which the “% Inhibition (Single Point Data)” value under setting [1] was determined as 15.896%.

In the case of `CC(C)(C)NC(=O)CN1C2CCC1CN(CC(=O)NCc1cc3ccccc3o1)C2` [Compound 5], the “% Inhibition (Single Point Data)” value under setting [1] turned out to be 22.469%.

Turning to `Cn1nc(C(C)(C)C)cc1NC(=O)CN1CC2CCC(C1)N2CC(=O)NC(C)(C)C` [Compound 6], under setting [1], the “% Inhibition (Single Point Data)” value was 10.343%.

With `CC(C)(C)NC(=O)CN1C2CCC1CN(CC(=O)NC13CC4CC(CC(C4)C1)C3)C2` [Compound 7], the “% Inhibition (Single Point Data)” value under setting [1] was determined as 64.635%. Further, the IC50 under setting [2] was 904 nM.

Regarding `CC(C)(C)NC(=O)CN1CC2CCC1CN2CC(=O)NC12CC3CC(CC(C3)C1)C2` (stereo not drawn) [Compound 8], under setting [1], the “% Inhibition (Single Point Data)” value is recorded as 76.573%. Under setting [2], the IC50 amounted to 609 nM.

On to `CC(C)(C)NC(=O)CN1C2CC1CN(CC(=O)Nc1cc(F)cc(Cl)c1)C2` [Compound 10], for which the “% Inhibition (Single Point Data)” value under setting [1] is recorded as 83.732%. Further, under setting [2], the IC50 is 143 nM.

Consider `CC(C)(C)NC(=O)CN1C2CC1CN(CC(=O)Nc1cccc(Cl)c1)C2` [Compound 11], for which, under setting [1], the “% Inhibition (Single Point Data)” value was 81.305%.

In the case of `CC(C)(C)NC(=O)CN1C2CC1CN(CC(=O)Nc1cccc(OC(F)F)c1)C2` [Compound 12], the “% Inhibition (Single Point Data)” value under setting [1] is 81.341%.

With `CC(C)(C)NC(=O)CN1CC2CC1CN2CC(=O)Nc1cccc(C(F)F)c1` (stereo not drawn) [Compound 13], the “% Inhibition (Single Point Data)” value under setting [1] came to 64.618%. Also, the IC50 under setting [2] came out at 490 nM.

On to `CC(C)(C)NC(=O)CN1C2CC1CN(CC(=O)Nc1cc(Cl)ccc1F)C2` [Compound 14], for which, under setting [1], the “% Inhibition (Single Point Data)” value is listed as 39.34%. The IC50 under setting [2] was found to be 1710 nM.

As for `CC(C)(C)NC(=O)CN1C2CC1CN(CC(=O)Nc1cccc(C(F)F)c1)C2` [Compound 15], the “% Inhibition (Single Point Data)” value under setting [1] is on record as 73.866%. Moreover, the IC50 under setting [2] is 308 nM.

For `O=C(CN1CC2CC(C1)N2CCNC(=O)C1(C(F)(F)F)CC1)Nc1ccc(F)c(Cl)c1` [Compound 16], the “% Inhibition (Single Point Data)” value under setting [1] came to 94.311%.

`O=C(CN1CC2CC(C1)N2CCNC(=O)C1(C(F)(F)F)CCC1)Nc1ccc(F)c(Cl)c1` [Compound 17]: the IC50 was under 78.2 nM. For the same molecule, the “% Inhibition (Single Point Data)” value under setting [1] is on record as 99.317%.

For the molecule `O=C(CN1CC2CC1CN2CCNC(=O)C1(C(F)(F)F)CC1)Nc1ccc(F)c(Cl)c1` (stereo not drawn) [Compound 18], the “% Inhibition (Single Point Data)” value under setting [1] was found to be 83.021%. Further, the IC50 under setting [2] is 337 nM.

As to `O=C(CN1CC2CC1CN2CCNC(=O)C1(C(F)(F)F)CCC1)Nc1ccc(F)c(Cl)c1` (stereo not drawn) [Compound 19], the “% Inhibition (Single Point Data)” value under setting [1] is 84.472%. For the same molecule, the IC50 under setting [2] was determined as 251 nM.

On to `O=C(CN1C[C@H]2C[C@@H]1CN2CC(=O)NC1(C(F)(F)F)CC1)Nc1cc(F)cc(Cl)c1` [Compound 20], for which the “% Inhibition (Single Point Data)” value under setting [1] is 56.816%. The concentration for half-maximal inhibition (IC50) under setting [2] was 1020 nM.

On to `CC(C)(C)NC(=O)CN1C[C@H]2C[C@@H]1CN2CC(=O)Nc1cc(F)cc(OC(F)F)c1` [Compound 21], for which the “% Inhibition (Single Point Data)” value under setting [1] was 73.828%.

In the case of `CC(C)(C)NC(=O)CN1C[C@@H]2C[C@H]1CN2CC(=O)Nc1cc(F)cc(OC(F)F)c1` [Compound 22], the “% Inhibition (Single Point Data)” value under setting [1] came to 97.77%. Besides, the IC50 under setting [2] was under 78.2 nM.

Consider `CC(C)(C)NC(=O)CN1C[C@@H]2C[C@H]1CN2CC(=O)Nc1ccc(F)c(Cl)c1` [Compound 23], for which, under setting [1], the “% Inhibition (Single Point Data)” value was 91.472%.

Take `CC(C)(NC(=O)CN1C[C@@H]2C[C@H]1CN2CC(=O)Nc1ccc(F)c(Cl)c1)C(F)(F)F` [Compound 24]: under setting [1], the “% Inhibition (Single Point Data)” value is 92.08%. The half-maximal inhibitory concentration (IC50) under setting [2] amounted to 185 nM.

For the molecule `O=C(CN1C[C@@H]2C[C@H]1CN2CC(=O)NC1(C(F)(F)F)CC1)Nc1ccc(F)c(Cl)c1` [Compound 25], the “% Inhibition (Single Point Data)” value under setting [1] worked out at 66.125%. Moreover, the half-inhibitory concentration (IC50) under setting [2] turned out to be 457 nM.

Consider `CC(C)(C)NC(=O)CN1C[C@H]2C[C@@H]1CN2CC(=O)Nc1ccc(F)c(Cl)c1` [Compound 26], for which the “% Inhibition (Single Point Data)” value under setting [1] is reported as 57.68%. For the same molecule, the IC50 under setting [2] was 827 nM.

Regarding `CC(C)(NC(=O)CN1C[C@H]2C[C@@H]1CN2CC(=O)Nc1ccc(F)c(Cl)c1)C(F)(F)F` [Compound 27], the “% Inhibition (Single Point Data)” value under setting [1] is 69.274%. Also, under setting [2], the IC50 stood at 457 nM.

For `O=C(CN1C[C@H]2C[C@@H]1CN2CC(=O)NC1(C(F)(F)F)CC1)Nc1ccc(F)c(Cl)c1` [Compound 28], the “% Inhibition (Single Point Data)” value under setting [1] is listed as 39.491%. In addition, the IC50 under setting [2] came to 1570 nM.

As for `CC(C(=O)Nc1ccc(F)c(Cl)c1)N1CC2CC(C1)N2CC(=O)NC(C)(C)C` (stereo not drawn) [Compound 29], under setting [1], the “% Inhibition (Single Point Data)” value was 90.315%. The IC50 under setting [2] worked out at 342 nM.

In the case of `CC(C(=O)Nc1ccc(F)c(Cl)c1)N1CC2CC(C1)N2CC(=O)NC1(C(F)(F)F)CC1` (stereo not drawn) [Compound 30], under setting [1], the “% Inhibition (Single Point Data)” value is listed as 63.42%. For the same molecule, the half-maximal inhibitory concentration (IC50) under setting [2] worked out at 705 nM.

For `CC(C)(C)NC(=O)CN1CCN(Cc2cnc(-c3cc(F)cc(Cl)c3)[nH]2)CC1` [Compound 31, N-tert-butyl-2-[4-[[2-(3-chloro-5-fluoro-phenyl)-1H-imidazol-5-yl]methyl]piperazin-1-yl]acetamide], the “% Inhibition (Single Point Data)” value under setting [3] amounted to 75.738%. Also, under setting [2], the IC50 came out at 409 nM.

`CC(C)(C)NC(=O)CN1CCCN(CC(=O)NC23CC4CC(CC(C4)C2)C3)CC1` [Compound 32]: the “% Inhibition (Single Point Data)” value under setting [3] was 56.921%.

On to `CC(C)(C)NC(=O)CN1CCN(CC(=O)NC23CC4CC(CC(C4)C2)C3)C(=O)C1` [Compound 33], for which the “% Inhibition (Single Point Data)” value under setting [3] is 54.403%.

For the molecule `CC(C)(C)NC(=O)CN1CCCN(CC(=O)Nc2cc(F)cc(Cl)c2)CC1` [Compound 34], the “% Inhibition (Single Point Data)” value under setting [3] came to 51.943%.

As to `CC(C)(C)NC(=O)CN1CCN(CC(=O)Nc2cc(F)cc(Cl)c2)C(=O)C1` [Compound 35], the “% Inhibition (Single Point Data)” value under setting [3] turned out to be 42.822%.

With `CC(C)(C)NC(=O)CN1CCCN(CC(=O)Nc2cc(F)cc(Cl)c2)C(=O)C1` [Compound 36], under setting [3], the “% Inhibition (Single Point Data)” value is recorded as 45.763%.

Take `CC(C)(C)NC(=O)CN1CCC(=O)N(CC(=O)Nc2cc(F)cc(Cl)c2)CC1` [Compound 37]: the “% Inhibition (Single Point Data)” value under setting [3] worked out at 25.144%.

Regarding `O=C(CN1CCN(CCC2CCOCC2)CC1=O)Nc1cc(F)cc(Cl)c1` [Compound 38], the “% Inhibition (Single Point Data)” value under setting [3] came out at 30.86%.

For the molecule `Cc1cc(NC(=O)CN2CCN(CC(=O)NC(C)(C)C)CC2)n(C)n1` [Compound 39], the “% Inhibition (Single Point Data)” value under setting [3] was determined as 35.477%.

With `Cn1nc(NC(=O)CN2CCN(CC(=O)NC(C)(C)C)CC2)c2ccccc21` [Compound 40], the “% Inhibition (Single Point Data)” value under setting [3] is given as 17.386%.

Source of the values: patent US20250213558A1, “T-TYPE CALCIUM CHANNEL MODULATORS COMPRISING A PIPERAZINE OR 1,4-DIAZEPANE CORE AND METHODS OF USE THEREOF” (Praxis Precision Medicines, Inc., priority 2022, published 2025).
